{"source": "patent US20120122913A1", "about": "“COMBINATION OF CURCUMINOIDS AND MTOR INHIBITORS FOR THE TREATMENT OF TAUOPATHIES” (Institut National De La Recherche Scientifque, priority 2009, published 2012)", "key": {"[1]": {"system": "Tau protein", "experiment": "Total Tau protein level by Western blot in differentiated SH-SY5Y cells exposed to β-amyloid(1-42)", "format": "cell-based, human", "conditions": "48 h", "method": "Chemical treatments were initiated and kept for 48 h.\nOn day 8, cells were observed under an inverted microscope to ensure that they are fully adherent and free of microbial contamination. On day 9, Petri dishes were used for Western Blot analyses. […] Cells were then removed with a cell scraper, transferred to a 0.6 ml microtube and kept on ice. Samples were sonicated for 30 seconds and mixed with a vortex for 5 seconds and the procedure was repeated once. Samples obtained were stored at −80 ° C. in aliquots of 20 μl. For SDS-PAGE analysis, samples (20 μl) were mixed with 7.34 μl of 4× SDS gel loading buffer (200 mM Tris-HCl, pH 6.8, 8% SDS, 20% Glycerol, 0.4% bromophenol blue and 400 mM β-mercaptoethanol) and 2 μl of cell lysing buffer, boiled for 10 min, cooled on ice, spun on a microcentrifuge and transferred to wells of an electrophoresis apparatus containing a 4% acrylamide stacking gel and a 8% acrylamide resolving gel. Electrophoresis protein separation was performed overnight using a constant current (40 V). Proteins were transferred to nitrocellulose by electro-blotting in a 20% methanol-transfer buffer with a constant 900 mA current for 90 min. Ponceau Red staining was performed to evaluate the quality of loading and transfer. […] The membrane was then washed 4 times for 5 min each time with TBS-0.1% Tween™, and soaked with the chemiluminescence substrate (Enhanced Luminol™ from PerkinElmer). X-Ray films were exposed to the membranes long enough to optimize each band detection. Band Intensity was quantified using a Fluor-S Multimager™ (Bio-Rad scanner) and the Quantity One™ software (Bio-Rad) and data adjusted with local background."}, "[2]": {"system": "differentiated SH-SY5Y cells", "experiment": "MTT cell viability assay in differentiated SH-SY5Y cells exposed to β-amyloid(1-42)", "conditions": "48 h", "procedure": "For the cytotoxicity assay, 48 well-plates were seeded with 180,000 cells and 500 μl of culture medium was added. Five Petri dishes (or 6-well plates) were prepared for each treatment. […] On day 7, the culture medium was removed and changed with a medium free of retinoic acid and FBS, but containing 2 nM of BDNF (Sigma Cat. No. B3795), from a 2 μM master solution in filtered sterile water). Chemical treatments were initiated and kept for 48 h. […] The Human Beta Amyloid (Aβ(1-42), Chemicon Cat. No. AG972) solution was prepared according to the manufacturer's instructions. […] The solution was subsequently diluted in serum-deprived culture medium containing BDNF (2 nM final concentration) to obtain either a 5 nM or 5 μM Aβ(1-42) final concentration.\nIn parallel, on day 9, plates were used for the MTT cell viability assay. A volume of 62.5 μl of a 3-(4,5-Dimethylthiazol-2-yl)-2,5-diphenyltetrazolium bromide (MTT) solution (5 mg/ml in a 1:1 PBS/culture medium) was added, then plates were incubated for 4 h. A volume of 312.5 μl of isopropanol—0.1N HCl was added, then for each well the content was mixed using a pipette (wide bore tip) to solubilize the product. The optical density at 560 nm, which is proportional to the number of living cells, was measured (reference at 690 nm)."}}, "data": [{"smiles": "CO[C@H]1C[C@@H]2CC[C@@H](C)[C@@](O)(O2)C(=O)C(=O)N2CCCC[C@H]2C(=O)O[C@H]([C@H](C)C[C@@H]2CC[C@@H](OCCO)[C@H](OC)C2)CC(=O)[C@H](C)/C=C(\\C)[C@@H](O)[C@@H](OC)C(=O)[C@H](C)C[C@H](C)/C=C/C=C/C=C/1C", "note": "[Everolimus]", "values": [{"measurement": "reduction in the total amount of Tau protein as compared to controls", "setting": "[1]; 1 nM Everolimus, 5 μM human β-amyloid(1-42), FIG. 3", "value": 17.2, "unit": "%"}, {"measurement": "reduction in the total amount of Tau protein as compared to controls", "setting": "[1]; 2 nM Everolimus, 5 nM human β-amyloid(1-42), FIG. 1", "value": 18.7, "unit": "%"}, {"measurement": "cytotoxicity (cell viability, MTT)", "setting": "[2]; 1 nM Everolimus, 5 μM β-amyloid(1-42), FIG. 4", "value": "none of these three treatments were cytotoxic"}, {"measurement": "cytotoxicity (cell viability, MTT)", "setting": "[2]; 2 nM Everolimus, 5 nM β-amyloid(1-42), FIG. 2", "value": "none of these three treatments were cytotoxic"}]}, {"smiles": "CO[C@H]1C[C@@H]2CC[C@@H](C)[C@@](O)(O2)C(=O)C(=O)N2CCCC[C@H]2C(=O)O[C@H]([C@H](C)C[C@@H]2CC[C@@H](OC(=O)C(C)(CO)CO)[C@H](OC)C2)CC(=O)[C@H](C)/C=C(\\C)[C@@H](O)[C@@H](OC)C(=O)[C@H](C)C[C@H](C)/C=C/C=C/C=C/1C", "note": "[Temsirolimus]", "values": [{"measurement": "reduction in the total amount of Tau protein as compared to controls", "setting": "[1]; 2 nM Temsirolimus, 5 nM human β-amyloid(1-42), FIG. 5", "value": 5.3, "unit": "%"}, {"measurement": "cytotoxicity (cell viability, MTT)", "setting": "[2]; 2 nM Temsirolimus, 5 nM β-amyloid(1-42), FIG. 6", "value": "none of these three treatments were cytotoxic"}]}, {"smiles": "COc1cc(/C=C/C(=O)CC(=O)/C=C/c2ccc(O)c(OC)c2)ccc1O", "note": "[curcumin, (E,E)-1,7-bis(4-Hydroxy-3-methoxyphenyl)-1,6-heptadiene-3,5-dione]", "values": [{"measurement": "reduction in the total amount of Tau protein as compared to controls", "setting": "[1]; 10 μM curcumin, 5 μM human β-amyloid(1-42), FIG. 3", "value": 0.5, "unit": "%"}, {"measurement": "reduction in the total amount of Tau protein as compared to controls", "setting": "[1]; 15 μM curcumin, 5 nM human β-amyloid(1-42), FIG. 5", "value": 6.7, "unit": "%"}, {"measurement": "reduction in the total amount of Tau protein as compared to controls", "setting": "[1]; 20 μM curcumin, 5 nM human β-amyloid(1-42), FIG. 1", "value": 2.1, "unit": "%"}, {"measurement": "cytotoxicity (cell viability, MTT)", "setting": "[2]; 10 μM curcumin, 5 μM β-amyloid(1-42), FIG. 4", "value": "none of these three treatments were cytotoxic"}, {"measurement": "cytotoxicity (cell viability, MTT)", "setting": "[2]; 15 μM curcumin, 5 nM β-amyloid(1-42), FIG. 6", "value": "none of these three treatments were cytotoxic"}, {"measurement": "cytotoxicity (cell viability, MTT)", "setting": "[2]; 20 μM curcumin, 5 nM β-amyloid(1-42), FIG. 2", "value": "none of these three treatments were cytotoxic"}]}]}
